Experimental data reported in PubChem BioAssay (NCI).
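Five concentrations, 48 hours, 96-well plates. The concentration for full growth arrest is given as TGI.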

Legend:
Test in all cases: DTP human tumour cell line panel, 48 h
[1] = system: 786-0 renal
[2] = system: OVCAR-8 ovarian
[3] = system: EKVX NSCLC
[4] = system: CAKI-1 renal
[5] = system: RXF 393 renal
[6] = system: HCC-2998 colon
[7] = system: UACC-257 melanoma
[8] = system: MALME-3M melanoma
[9] = system: SK-MEL-2 melanoma
[10] = system: NCI-H522 lung
[11] = system: OVCAR-4 ovarian
[12] = system: T-47D breast
[13] = system: NCI-H23 lung
[14] = system: SNB-75 CNS
[15] = system: BT-549 breast
[16] = system: A549 NSCLC
[17] = system: TK-10 renal
[18] = system: SR leukemia
[19] = system: HS 578T breast
[20] = system: K-562 leukemia
[21] = system: RPMI-8226 leukemia
[22] = system: PC-3 prostate
[23] = system: DU-145 prostate
[24] = system: MCF7 breast
[25] = system: KM12 colon
[26] = system: ACHN renal
[27] = system: UACC-62 melanoma
[28] = system: NCI/ADR-RES ovarian
[29] = system: SK-MEL-28 melanoma
[30] = system: SK-OV-3 ovarian
[31] = system: HCT-116 colon
[32] = system: OVCAR-5 ovarian
[33] = system: MDA-MB-435
[34] = system: SW-620 colon
[35] = system: HOP-62 NSCLC
[36] = system: SN12C renal
[37] = system: UO-31 renal
[38] = system: IGROV1 ovarian
[39] = system: SF-268 CNS
[40] = system: LOX IMVI melanoma
[41] = system: HL-60(TB) leukemia
[42] = system: HCT-15 colon
[43] = system: NCI-H460 lung
[44] = system: NCI-H226 lung
[45] = system: U251 CNS
[46] = system: M14 melanoma
[47] = system: SF-539 CNS
[48] = system: MOLT-4 leukemia
[49] = system: SF-295 CNS
[50] = system: OVCAR-3 ovarian
[51] = system: HT29 colon
[52] = system: SK-MEL-5 melanoma
[53] = system: MDA-N
[54] = system: COLO 205 colon
[55] = system: MDA-MB-231 breast
[56] = system: HOP-92 NSCLC
[57] = system: CCRF-CEM leukemia
[58] = system: SNB-19 CNS
[59] = system: A498 renal

Compound: C=CCN(C(C)=O)c1cc(OCc2ccccc2)c2c(c1)c(C)cn2S(=O)(=O)c1ccccc1
- TGI [1]: > 100 µM
- TGI [2]: > 100 µM
- TGI [3]: > 50.3 µM
- TGI [4]: > 54.7 µM
- TGI [5]: > 100 µM
- TGI [6]: > 100 µM
- TGI [7]: > 100 µM
- TGI [8]: 34.2 µM
- TGI [9]: 12.3 µM
- TGI [10]: > 55.3 µM
- TGI [11]: > 100 µM
- TGI [12]: > 35 µM
- TGI [13]: > 100 µM
- TGI [14]: > 100 µM
- TGI [15]: > 100 µM
- TGI [16]: > 100 µM
- TGI [17]: > 100 µM
- TGI [18]: 4.21 µM
- TGI [19]: > 70.4 µM
- TGI [20]: > 54.8 µM
- TGI [21]: > 28.5 µM
- TGI [22]: > 78.4 µM
- TGI [23]: > 100 µM
- TGI [24]: 31 µM
- TGI [25]: > 100 µM
- TGI [26]: 51.4 µM
- TGI [27]: > 76.9 µM
- TGI [28]: > 100 µM
- TGI [29]: > 100 µM
- TGI [30]: > 100 µM
- TGI [31]: > 100 µM
- TGI [32]: > 100 µM
- TGI [33]: > 46.3 µM
- TGI [34]: > 100 µM
- TGI [35]: > 100 µM
- TGI [36]: > 100 µM
- TGI [37]: > 100 µM
- TGI [38]: > 100 µM
- TGI [39]: > 100 µM
- TGI [40]: 50.1 µM
- TGI [41]: > 100 µM
- TGI [42]: > 100 µM
- TGI [43]: > 100 µM
- TGI [44]: > 31.1 µM
- TGI [45]: > 100 µM
- TGI [46]: > 100 µM
- TGI [47]: > 100 µM
- TGI [48]: > 22 µM
- TGI [49]: > 100 µM
- TGI [50]: > 27.7 µM
- TGI [51]: > 100 µM
- TGI [52]: 21.5 µM
- TGI [53]: > 74.7 µM
- TGI [54]: 12.6 µM
- TGI [55]: > 70.8 µM
- TGI [56]: > 100 µM
- TGI [57]: > 27.1 µM
- TGI [58]: > 100 µM
- TGI [59]: 26.3 µM

Compound: CCC(CCCC[C@H]1CC[C@@H]2CC(=O)C[C@H]12)OC (some centres not stated)
- TGI [1]: > 100 µM
- TGI [2]: > 100 µM
- TGI [3]: > 100 µM
- TGI [4]: > 100 µM
- TGI [5]: > 100 µM
- TGI [6]: > 100 µM
- TGI [7]: > 100 µM
- TGI [8]: > 100 µM
- TGI [9]: > 100 µM
- TGI [10]: > 100 µM
- TGI [11]: > 100 µM
- TGI [12]: > 100 µM
- TGI [13]: > 100 µM
- TGI [14]: > 100 µM
- TGI [15]: > 100 µM
- TGI [16]: > 100 µM
- TGI [17]: > 100 µM
- TGI [18]: > 100 µM
- TGI [19]: > 100 µM
- TGI [20]: > 100 µM
- TGI [21]: > 100 µM
- TGI [22]: > 100 µM
- TGI [23]: > 100 µM
- TGI [24]: > 100 µM
- TGI [25]: > 100 µM
- TGI [26]: > 100 µM
- TGI [27]: > 100 µM
- TGI [28]: > 100 µM
- TGI [29]: > 100 µM
- TGI [30]: > 100 µM
- TGI [31]: > 100 µM
- TGI [32]: > 100 µM
- TGI [33]: > 100 µM
- TGI [34]: > 100 µM
- TGI [35]: > 100 µM
- TGI [36]: > 100 µM
- TGI [38]: > 100 µM
- TGI [39]: > 100 µM
- TGI [40]: > 100 µM
- TGI [41]: > 100 µM
- TGI [42]: > 100 µM
- TGI [43]: > 100 µM
- TGI [44]: > 100 µM
- TGI [45]: > 100 µM
- TGI [46]: > 100 µM
- TGI [47]: > 100 µM
- TGI [48]: > 100 µM
- TGI [49]: > 100 µM
- TGI [50]: > 100 µM
- TGI [51]: > 100 µM
- TGI [52]: > 100 µM
- TGI [53]: > 100 µM
- TGI [54]: > 100 µM
- TGI [55]: > 100 µM
- TGI [56]: > 100 µM
- TGI [57]: > 100 µM
- TGI [58]: > 100 µM
- TGI [59]: > 100 µM
